The source made the active and inactive calls. The calls are words filed in the database; no cut-off is given here.
How the values were obtained:
Type in all cases: functional, cell-based
[1] = molecular target: T1, 5-hydroxytryptamine receptor 2C (Homo sapiens) (UniProt P28335); test: Agonist activity at human 5-HT2CR expressed in HEK293 cells upto 50 uM incubated upto 90 sec by Fluo-4 AM dye based Ca2+ imaging assay
T1 sequence (whole entry): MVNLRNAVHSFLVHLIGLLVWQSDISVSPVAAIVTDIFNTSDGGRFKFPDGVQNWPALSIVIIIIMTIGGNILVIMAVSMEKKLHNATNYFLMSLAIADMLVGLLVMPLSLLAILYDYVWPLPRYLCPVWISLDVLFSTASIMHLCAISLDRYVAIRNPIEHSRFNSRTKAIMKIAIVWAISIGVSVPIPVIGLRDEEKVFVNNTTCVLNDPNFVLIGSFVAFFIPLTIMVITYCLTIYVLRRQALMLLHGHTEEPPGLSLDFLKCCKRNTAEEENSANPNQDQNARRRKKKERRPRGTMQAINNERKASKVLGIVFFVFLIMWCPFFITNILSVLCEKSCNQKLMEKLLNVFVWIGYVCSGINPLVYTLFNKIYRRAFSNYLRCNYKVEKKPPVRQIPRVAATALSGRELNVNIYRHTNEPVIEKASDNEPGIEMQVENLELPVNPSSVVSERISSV

[2] = molecular target: T2, 5-hydroxytryptamine receptor 2A (Homo sapiens, UniProt P28223); test: Agonist activity at human 5-HT2AR expressed in HEK293 cells upto 50 uM incubated upto 90 sec by Fluo-4 AM dye based Ca2+ imaging assay
T2 sequence (P28223 whole entry): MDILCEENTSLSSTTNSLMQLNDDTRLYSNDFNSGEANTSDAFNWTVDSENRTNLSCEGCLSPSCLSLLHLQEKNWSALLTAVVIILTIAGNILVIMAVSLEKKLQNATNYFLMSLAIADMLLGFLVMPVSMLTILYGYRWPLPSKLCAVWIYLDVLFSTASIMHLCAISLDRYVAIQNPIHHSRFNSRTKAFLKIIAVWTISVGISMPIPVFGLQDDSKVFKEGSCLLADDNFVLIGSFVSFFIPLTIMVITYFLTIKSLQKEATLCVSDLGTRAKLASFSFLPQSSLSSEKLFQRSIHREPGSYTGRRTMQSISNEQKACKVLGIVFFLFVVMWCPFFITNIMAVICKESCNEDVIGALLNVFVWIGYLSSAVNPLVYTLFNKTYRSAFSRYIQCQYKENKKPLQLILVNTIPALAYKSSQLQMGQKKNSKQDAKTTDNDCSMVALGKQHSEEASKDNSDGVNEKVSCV

[3] = molecular target: T2, 5-hydroxytryptamine receptor 2A; test: Agonist activity at human 5-HT2AR expressed in HEK293 cells incubated upto 90 sec by Fluo-4 AM dye based Ca2+ imaging assay
[4] = molecular target: T2, 5-hydroxytryptamine receptor 2A; test: Agonist activity at human 5-HT2AR expressed in HEK293 cells assessed as maximal response incubated upto 90 sec by Fluo-4 AM dye based Ca2+ imaging assay relative to 5-HT; conditions: filed as agonist

Row | SMILES | Activity [1] | Activity [2] | EC50 [3] [nM] | Rmax [4] [%]
1 | CCN1CCC[C@@H](c2cc(OC)c(C(F)(F)F)cc2OC)C1 | inactive | – | – | –
2 | FC(F)(F)c1ccc(C2CCCNC2)cc1 (racemic) | inactive | inactive | – | –
3 | CCOc1cc(C(F)(F)F)c(OCC)cc1C1CCCNC1 (stereo in doubt; 26(eu)) | inactive | – | – | –
4 | CCN1CCC[C@H](c2cc(OC)c(C(F)(F)F)cc2OC)C1 | inactive | inactive | – | –
5 | COc1cc(CCN)c(OC)cc1Br | – | – | 1.6 | 68
6 | COc1cc(C2CCCNC2)ccc1C(F)(F)F (configuration not stated) | inactive | – | – | –
7 | CCOc1cc(C(F)(F)F)c(OCC)cc1C1CCCNC1 (stereo in doubt) | inactive | – | – | –
8 | COc1ccc(OC)c(C2CCCNC2)c1 (racemic) | inactive | inactive | – | –
